Laboratory results as given in patent US3991210A, “Acetamidine urinary antiseptics” (The Dow Chemical Company, priority 1975, dated 1976).
Like-named read-outs stand apart in the source and are kept apart here.

Key:
[1] = system: Escherichia coli; assay: Antimicrobial activity of urine collected from mice after oral dosing, against Escherichia coli; format: in vivo; settings: for urinary antiseptic activity, EC: single oral dose 56.2 mg/kg; as to urinary antiseptic activity, EC: key: +: urinary antiseptic activity and inhibition of microbial growth being observed; O: no urinary antiseptic activity and no inhibition of microbial growth are observed
Method: (§1) Separate groups of mice are fasted overnight, but are provided with water ad libitum prior to oral administration of a substituted amidine test compound. […] Urine is collected in sterile containers at intervals over the period from 1 to 24 hours after administration of the test compound. The collected urine is assayed for antimicrobial activity against Escherichia coli, Pseudomonas aeruginosa and a Proteus species, either Proteus vulgaris or Proteus mirabilis. Urine samples collected from the separate groups of mice administered one of 2-(4-chlorophenyl)acetamidine hydrochloride, 2-(4-bromophenyl)-acetamidinehydrochloride, 2-(4-chlorophenyl)acetamidoxime hydrochloride and 2-(4-bromophenyl)acetamidoxime hydrochloride are found to be active against all three test organisms.
(§2) The procedure of Example 1 is repeated, employing the substituted amidine compound 2-(4-bromophenyl)-acetamidine hydrochloride, and the known antiseptics gentamicin and nalidixic acid as test compounds. […]

[2] = system: Proteus mirabilis; assay: Proteus mirabilis urinary tract infection in rats, bacterial count per kidney (Example 6); format: in vivo; settings: oral; for Mean Bacterial Count (number of organisms per kidney): three doses at 4, 28, 52 hours, 72 hours
Method: In a similar operation, a Proteus mirabilis urinary tract infection was established in rats using a similar surgical technique. In separate groups, the test compound 2-(4-bromophenyl)acetamidine p-toluene-sulfonate, or the reference compound nalidixic acid, were administered orally in three doses, 4, 28 and 52 hours after completion of the surgical technique used to establish the infection. Separate groups of rats were left untreated to serve as controls. After 72 hours, the animals were euthanized with carbon dioxide. The left kidney was removed, homogenized in 9 milliliters sterile saline solution, and fivefold dilutions of the resulting brei were made in brain-heart infusion broth. Bacterial counts in the dilutions were determined after 24 hours incubation at 37° C. The oral dose in milligrams per kilogram (mg/kg); millimoles per kilogram (mM); the number of animals in each group, and the base ten logarithm (Log10) of the bacterial count (number of organisms per kidney) are set out below.

[3] = system: Proteus vulgaris; assay: Antimicrobial activity of urine collected from mice after oral dosing, against Proteus vulgaris (Example 2); format: in vivo; settings: single oral dose 56.2 mg/kg; also: key: +: urinary antiseptic activity and inhibition of microbial growth being observed; O: no urinary antiseptic activity and no inhibition of microbial growth are observed
Method: Separate groups of mice are fasted overnight, but are provided with water ad libitum prior to oral administration of a substituted amidine test compound. The test compounds are administered orally at a dosage rate of 50 milligrams of test compound per kilogram of animal body weight in an aqueous carrier. Urine is collected in sterile containers at intervals over the period from 1 to 24 hours after administration of the test compound. The collected urine is assayed for antimicrobial activity against Escherichia coli, Pseudomonas aeruginosa and a Proteus species, either Proteus vulgaris or Proteus mirabilis. Urine samples collected from the separate groups of mice administered one of 2-(4-chlorophenyl)acetamidine hydrochloride, 2-(4-bromophenyl)-acetamidinehydrochloride, 2-(4-chlorophenyl)acetamidoxime hydrochloride and 2-(4-bromophenyl)acetamidoxime hydrochloride are found to be active against all three test organisms.
The procedure of Example 1 is repeated, employing the substituted amidine compound 2-(4-bromophenyl)-acetamidine hydrochloride, and the known antiseptics gentamicin and nalidixic acid as test compounds. Each test compound is administered in a single oral dose of 56.2 milligrams per kilogram; and separate urine samples are separately collected and assayed at intervals of 1, 4 and 24 hours after administration.

[4] = system: Pseudomonas aeruginosa; assay: Antimicrobial activity of urine collected from mice after oral dosing, against Pseudomonas aeruginosa; format: in vivo; settings: for urinary antiseptic activity, PA: single oral dose 56.2 mg/kg; as to urinary antiseptic activity, PA: key: +: urinary antiseptic activity and inhibition of microbial growth being observed; O: no urinary antiseptic activity and no inhibition of microbial growth are observed
Method: as §1, §2

[5] = system: Proteus mirabilis; assay: Proteus mirabilis urinary tract infection in Wistar rats, 14 days treatment (Example 4); format: in vivo; settings: infected Wistar rats, oral
Description: (§3) Several groups of Wistar rats are surgically prepared and given a urinary tract infection by injection into the lumen of the bladder of 0.1 milliliter of a brain-heart infusion broth culture of Proteus mirabilis, in a procedure similar to that of Miraglia, Transact. N.Y. Acad. Sc. 32, 337 (1970). One group is similarly prepared surgically, but is not infected with the test organism, providing an operated, non-infected control group. Three hours after the surgical operations are complete, the animals in three of the groups (the test groups) are orally administered 100 milligrams per kilogram of nalidixic acid, or 2-(4-bromophenyl)acetamidine hydrochloride at a dosage rate of 50 or 100 milligrams per kilogram. A fourth group is not administered any test compound to serve as an infected control group.
(§4) The animals in each group are weighed daily and the test compounds are administered to the test groups daily at the same dosage rate for a total of 14 days. At the end of the 14 day test period, the animals are sacrificed. Swabs of the kidney pelvis and samples of bladder urine are obtained and examined by bacteriological culture techniques, and pathological examinations are carried out.

[6] = Acute oral lethality (LD50) in mice; settings: mouse, in vivo
Method: Separate groups of mice are separately administered an aqueous composition containing 2-(4-bromophenyl)acetamidine hydrochloride. The compound is administered per os at various dosage rates, and the animals are held for 24 hours, after which deaths are recorded, and the LD50 (dosage lethal to 50 percent of the mice) is determined.

[7] = system: Proteus mirabilis; assay: Proteus mirabilis urinary tract infection in Holtzman rats (Example 5); format: in vivo; settings: PO
Description: as §3, §4
The operations of Example 4 are repeated using six Holtzman rats per group and using nitrofurantoin instead of nalidixic acid.

[8] = system: Proteus species, either Proteus vulgaris or Proteus mirabilis; assay: Antimicrobial activity of urine collected from mice after oral dosing, against a Proteus species (Example 1); format: in vivo, Proteus vulgaris or Proteus mirabilis (urine from mice); settings: oral, 50 mg/kg, urine collected 1 to 24 hours
Method: as §1

[9] = Standard pharmacological evaluation procedures in mice; format: in vivo; settings: 60 mg/kg
Method: In other operations, 2-(4-bromophenyl)acetamidine hydrochloride is administered to mice at a dosage rate of 60 milligrams per kilogram in a series of standard pharmacological evaluation procedures.

[10] = system: bacterial microorganisms which may infect the mammalian urinary system; assay: Urinary antiseptic activity (general statement); design: species or system mammals; settings: in vivo
[11] = Anorectic effect on repeated oral dosing in rats; format: in vivo; settings: 100 mg/kg per day
[12] = Toxicity / detrimental pharmacological effects (general statement); format: in vivo, mammals
[13] = Stability in comparison to the hydrochloride salt (general statement); format: physicochemical; settings: versus hydrochloride salt
[14] = oral, 50 mg/kg, urine collected 1 to 24 hours
[15] = 50 or 100 mg/kg per day, 14 days

**Q.** For `CCn1cc(C(=O)O)c(=O)c2ccc(C)nc21` [Nalidixic acid, nalidixic acid, reference compound], which “urinary antiseptic activity, EC” value ([1]; urine at 1 hour) is on record?
**A.** +

**Q.** What about the “urinary antiseptic activity, EC” value ([1]; urine at 4 hours) of the same compound?
**A.** +

**Q.** And the “Mean Bacterial Count (number of organisms per kidney)” value ([2]; 50 mg/kg)?
**A.** 3.20 Log10

**Q.** And the “Mean Bacterial Count (number of organisms per kidney)” value ([2]; 100 mg/kg)?
**A.** 2.56 Log10

**Q.** And the “urinary antiseptic activity, PV” value ([3]; urine at 1 hour)?
**A.** +

**Q.** What about the “urinary antiseptic activity, PV” value ([3]; urine at 4 hours) of the same compound?
**A.** +

**Q.** What about the “urinary antiseptic activity, PA” value ([4]; urine at 4 hours) of the same compound?
**A.** +

**Q.** And the “bacteriological culture of kidney pelvis swabs and bladder urine” value ([5]; 100 mg/kg per day, 14 days)?
**A.** bacteriologically sterile

**Q.** And the “gross pathology attributable to the infection” value ([5]; 100 mg/kg per day, 14 days)?
**A.** No gross pathology attributable to the infection

**Q.** What about the weight gain ([5]; 100 mg/kg per day, 14 days) of the same compound?
**A.** gain weight normally

**Q.** For `Cl.N=C(N)Cc1ccc(Br)cc1` [2-(4-bromophenyl)acetamidine hydrochloride], which LD50 at 24 h ([6]; mice, per os, 24 hours, read-out: LD50 (dosage lethal to 50 percent of the mice)) is on record?
**A.** 562 mg/kg

**Q.** And the “antimicrobial activity of urine against E. coli” value [1, 14]?
**A.** active

**Q.** And the “urinary antiseptic activity, EC” value ([1]; urine at 1 hour)?
**A.** +

**Q.** And the “urinary antiseptic activity, EC” value ([1]; urine at 4 hours)?
**A.** +

**Q.** What about the “urinary antiseptic activity, EC” value ([1]; urine at 24 hours) of the same compound?
**A.** +

**Q.** What about the “urinary antiseptic activity, PV” value ([3]; urine at 1 hour) of the same compound?
**A.** +

**Q.** And the “urinary antiseptic activity, PV” value ([3]; urine at 4 hours)?
**A.** +

**Q.** What about the “Percent Infection (percent of surviving rats with Proteus infection of any degree)” value ([7]; 50 mg/kg) of the same compound?
**A.** 60.0%

**Q.** What about the “Percent Pathology (percent total pathology signs observed over total possible observations times 100)” value ([7]; 50 mg/kg) of the same compound?
**A.** 13.6%

**Q.** And the “Percent Weight Gain” value ([7]; 50 mg/kg)?
**A.** 16.6%

**Q.** And the “Percent Infection (percent of surviving rats with Proteus infection of any degree)” value ([7]; 100 mg/kg)?
**A.** 20.0%

**Q.** And the “Percent Pathology (percent total pathology signs observed over total possible observations times 100)” value ([7]; 100 mg/kg)?
**A.** 12.7%

**Q.** What about the “Percent Weight Gain” value ([7]; 100 mg/kg) of the same compound?
**A.** 19.2%

**Q.** And the “antimicrobial activity of urine against Pseudomonas aeruginosa” value [4, 14]?
**A.** active

**Q.** And the “urinary antiseptic activity, PA” value ([4]; urine at 1 hour)?
**A.** +

**Q.** What about the “urinary antiseptic activity, PA” value ([4]; urine at 4 hours) of the same compound?
**A.** +

**Q.** What about the weight gain rate ([5]; 50 mg/kg per day, 14 days) of the same compound?
**A.** normal in all but one of the rats

**Q.** And the “weight gain rate after the tenth day” value ([5]; 50 mg/kg per day, after the tenth day)?
**A.** normal for all the rats in this group after the tenth day

**Q.** What about the weight gain rate ([5]; 100 mg/kg per day, 2-(4-bromophenyl)-acetamidine hydrochloride group) of the same compound?
**A.** approximately mormal in all but two of the rats

**Q.** And the “weight gain after the sixth day” value ([5]; 100 mg/kg per day, after the sixth day)?
**A.** normal weight gain is observed with all but one of the test animals

**Q.** And the “gross pathological changes attributable to the infection” value [5, 15]?
**A.** No gross pathological changes attributable to the infection

**Q.** What about the “infecting Proteus organism in swab and urine cultures” value [5, 15] of the same compound?
**A.** no evidence of the infecting Proteus organism

**Q.** What about the “bacteriological culture of swabs and urine” value ([5]; 50 or 100 mg/kg per day, 14 days, except slight E. coli growth in one rat) of the same compound?
**A.** bacteriologically sterile

**Q.** And the “growth of E. coli in urine and kidney swab cultures” value ([5]; 50 or 100 mg/kg per day, one of the rats, attributed to contamination during autopsy)?
**A.** slight growth of E. coli noted in the urine and one of the kidney swabs from one of the rats

**Q.** What about the “antimicrobial activity of urine against Proteus species” value [8] of the same compound?
**A.** active

**Q.** And the analgesic activity [9]?
**A.** no significant

**Q.** And the anorectic activity [9]?
**A.** no significant

**Q.** What about the anti-thrombotic activity [9] of the same compound?
**A.** some anti-thrombotic activity

**Q.** And the antidepressant activity [9]?
**A.** no significant

**Q.** What about the hypotensive activity [9] of the same compound?
**A.** no significant

**Q.** And the sedative activity [9]?
**A.** no significant

**Q.** With `Cc1ccc(S(=O)(=O)O)cc1.N=C(N)Cc1ccc(Br)cc1` [2-(4-bromophenyl)acetamidine p-toluene-sulfonate] as the compound, how does the LD50 at 24 h [6] read?
**A.** 2610 mg/kg

**Q.** What about the urinary antiseptic activity [10] of the same compound?
**A.** high degree of urinary antiseptic activity

**Q.** And the “Mean Bacterial Count (number of organisms per kidney)” value ([2]; 12.5 mg/kg)?
**A.** 7.49 Log10

**Q.** And the “Mean Bacterial Count (number of organisms per kidney)” value ([2]; 25 mg/kg)?
**A.** 6.01 Log10

**Q.** And the “Mean Bacterial Count (number of organisms per kidney)” value ([2]; 50 mg/kg)?
**A.** 4.23 Log10

**Q.** What about the “Mean Bacterial Count (number of organisms per kidney)” value ([2]; 100 mg/kg) of the same compound?
**A.** 2.68 Log10

**Q.** And the “reduction of bacterial counts relative to nalidixic acid, weight basis” value ([2]; equal dose of nalidixic acid on a weight basis)?
**A.** comparable to an equal dose of nalidixic acid, on a weight basis

**Q.** What about the “effectiveness relative to nalidixic acid, molar basis” value ([2]; on a molar basis) of the same compound?
**A.** more effective, on a molar basis, than nalidixic acid

**Q.** What about the “anorectic effect, by the fourth week” value ([11]; by the fourth week of dosing) of the same compound?
**A.** decreases and substantially disappears by the fourth week of dosing

**Q.** And the “anorectic effect, first week” value ([11]; during the first week)?
**A.** an anorectic effect is observed during the first week

**Q.** And the toxicity ([12]; in vivo)?
**A.** low toxicity

**Q.** And the “toxicity characteristics in comparison to the corresponding hydrochloride salt” value ([12]; versus hydrochloride salt)?
**A.** improved

**Q.** What about the “stability in comparison to the corresponding hydrochloride salt” value [13] of the same compound?
**A.** improved
